Reference: US10808008B2, “Aromatic-cationic peptides and uses of same” (Cornell University, priority 2012, dated 2020)
Where no end group is shown, it is not given here. [ ]: non-standard residue; d: D form.

Columns and labels:
[1] = target: T1, cytochrome c and cardiolipin (CL) (Equus caballus, UniProt P00004); assay: Fluorescence quenching by cytochrome c in the presence of cardiolipin; type: binding, horse; conditions: CL 50 μg/ml
T1 construct: from tissue; host or cells: horse heart
Procedure: Fluorescence emission of SS-19 (10 μM) was monitored in real time (Ex/Em=320 nm/420 nm) using Hitachi F-4500 fluorescence spectrophotometer. […] CL may potentiate the interaction between SS-19 and cytochrome c by serving as an anionic platform for the two cationic molecules.
The quenching by cytochrome c was not displaced by sequential additions of bovine serum albumin (500 μg/ml) (FIG. 13C, A+arrows).
SS-36 also contains the polarity-sensitive fluorescent amino acid aladan. […] Accordingly, aromatic-cationic peptides of the present disclosure are useful for the prevention or treatment of diseases or disorders characterized by dysregulation of cardiolipin and/or cytochrome c, and/or diseases or disorders characterized by dysregulation of the cardiolipin/cytochrome c interaction.
Interaction of SS peptides with horse heart cytochrome c in the absence or presence of free cardiolipin or cardiolipin/POPC (1:1) liposomes (prepared as described in Example 22) was examined by fluorescence quenching of [atn]SS-02 (λex/λem=320/420 nm) and [ald]SS-02 (λex/λem=360/510 nm) upon addition of cytochrome c (using a Hitachi F-4500 fluorescence spectrophotometer). The solvents used to dissolve cardiolipin and POPC had negligible effect on cytochrome c-dependent quenching of these peptides. All experiments were done in low ionic solution (deionized water) or 20 mM Hepes pH 7.4.

[2] = Fluorescence spectroscopy of labelled peptides with cardiolipin; type: binding; conditions: 1 μM peptide; CL 5 to 50 μg/ml
From the text: The peptides 2′,6′-Dmt-D-Arg-[…] (SS-19) and 2′,6′-Dmt-D-Arg-Phe-Lys-Ald-NH2 (SS-37) cationic peptides carry net positive charge at neutral pH. They are expected to associate with anionic phospholipid cardiolipin based on electrostatic interaction. The interaction of small peptides with lipid membranes can been studied using fluorescence spectroscopy (Surewicz and Epand, 1984). […] Polarity-sensitive fluorescent probes were incorporated into the peptides and fluorescence spectroscopy was used to determine if SS-19, SS-37 and SS-36 interact with CL.
The peptide 2′,6′-Dmt-D-Arg-Phe-(atn)Dap-NH2 (SS-19) contains anthraniloyl incorporated into diaminopropionic acid. Anthraniloyl derivatives fluoresce in the 410-420 nm range when excited at 320-330 nm (Hiratsuka T, 1983). The quantum yield of anthraniloyl derivatives is strongly dependent on the local environment, and can increase 5-fold going from water to 80% ethanol, together with a blue shift in the emission maxima (λ max) of <10 nm (Hiratsuka T, 1983). Fluorescence emission spectrum of SS-19 (1 μM) alone, and in the presence of increasing concentrations of CL (5 to 50 μg/ml), was monitored following excitation at 320 nm using Hitachi F-4500 fluorescence spectrophotometer.
The peptide 2′,6′-Dmt-D-Arg-Phe-Lys-Ald-NH2 (SS-37) contains an additional amino acid, aladan (Ald), which has been reported to be particularly sensitive to the polarity of its environment and it has been used to probe the electrostatic character of proteins (Cohen et al., 2002). When excited at 350 nm, λmax shifts from 542 nm in water to 409 nm in heptane, accompanied by a significant increase in quantal yield (Cohen et al., 2001). Fluorescence emission spectrum of SS-37 (1 μM) alone, and in the presence of increasing concentrations of CL, was monitored following excitation at 350 nm. Addition of CL (5 to 50 μg/ml) led to a 3-fold increase in quantal yield of SS-37 as well as a clear blue shift in λ max, from 525 nm without CL to 500 nm with 50 μg/ml CL (FIG. 11B).
The peptide 2′,6′-Dmt-D-Arg-Ald-Lys-NH2 (SS-36) contains Ald in place Phe^3 in SS-02. Fluorescence emission spectrum of SS-36 (1 μM) alone, and in the presence of increasing concentrations of CL, was monitored following excitation at 350 nm. SS-36 was the most sensitive to the addition of CL, with dramatic increase in quantal yield and blue shift observed with much lower added amounts of CL (1.25 to 5 μg/ml). The λmax shifted from 525 nm without CL to 500 nm with as little as 1.25 μg/ml CL, and quantal yield increased by more than 100-fold with the addition of 5 μg/ml of CL (FIG. 11C). […] Accordingly, aromatic-cationic peptides of the present disclosure are useful for the prevention or treatment of diseases or disorders characterized by dysregulation of cardiolipin.
Changes in the emission intensity of the [atn]SS-02 and the [ald]SS-02 were measured using a Hitachi F-4500 fluorescence spectrophotometer. The different solvents used to dissolve the various phospholipids (chloroform, methanol and ethanol) had negligible effect on the fluorescence spectrum of [atn]SS-02 and [ald]SS-02. All experiments were done in low ionic solution (deionized water) to optimize electrostatic interactions of peptides with phospholipids.
Increasing concentrations of cardiolipin (5, 10, 25, and 50 μg/mL) were added to 1 μM [atn]SS-02, and the emission intensity between 350 nm and 500 nm was measured.

[3] = target: cytochrome c/cardiolipin complex (Equus caballus, UniProt P00004); assay: Soret circular dichroism of cytochrome c with cardiolipin; type: biochemical; conditions: 10 μM cytochrome c, 30 μg/ml CL, 10 μM peptide; 20 mM HEPES pH 7.5, 25° C.
Sequence of cytochrome c/cardiolipin complex (P00004 2-105 limits assumed, one chain of several): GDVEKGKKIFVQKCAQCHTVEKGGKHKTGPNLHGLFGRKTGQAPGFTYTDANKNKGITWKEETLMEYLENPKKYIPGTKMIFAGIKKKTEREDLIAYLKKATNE
Procedure: Circular dichroism (CD) was carried out to examine the effects of the peptides on protecting the heme environment of cytochrome c from the acyl chain of CL. For heme proteins, the Soret CD spectrum is strictly correlated with the heme pocket conformation. In particular, the negative 416-420 nm Cotton effect is considered diagnostic of Fe(III)-Met80 coordination in native cytochrome c (Santucci and Ascoli, 1997). […] CD spectra were obtained using AVIV CD Spectrometer Model 410.
Changes in the Soret CD spectrum of cytochrome c (10 μM) were recorded in the absence (dotted line) and presence (dashed line) of 30 μg/ml CL, plus addition of different peptides (10 μM) (solid line) (FIG. 14). CD measurements were carried out using 20 mM HEPES, pH 7.5, at 25° C. and expressed as molar ellipticity (A) (m Deg). […] Accordingly, aromatic-cationic peptides of the present disclosure are useful for the prevention or treatment of diseases or disorders characterized by dysregulation of cardiolipin and/or cytochrome c, and/or diseases or disorders characterized by dysregulation of the cardiolipin/cytochrome c interaction. In addition, aromatic-cationic peptides of the present disclosure are useful to protect the heme environment of cytochrome c from the acyl chain of cardiolipin.
Circular Dichroism (CD) spectra were collected with an AVIA 62 DS spectrophotometer equipped with a sample temperature controller. CD spectra of the Soret region (370-450 nm) were recorded with 10-mm path length cells containing 20 mM Hepes, pH 7.4, and 10 μM cytochrome c, in the presence or absence of 30 μg/ml cardiolipin and different SS peptide analogs (SS-02, [atn]SS-02, [ald]SS-02, and SS-31). The maximum lipid concentration was kept low to avoid spectral distortions due to excessive light scattering. All measurements were done at 25° C. All spectra were corrected for background, and the final spectrum shown represents the average of at least three experiments.

[4] = target: cardiolipin-cytochrome c complex (Equus caballus, UniProt P00004); assay: Cytochrome c reduction in the presence of cardiolipin; type: biochemical; conditions: 500 μM GSH
Sequence of cardiolipin-cytochrome c complex (P00004 2-105 limits assumed, one chain of several): as above
Procedure: Reduction of cytochrome c (20 μM) was induced by the addition of glutathione (500 μM) in the absence or presence of CL (100 μg/ml) (FIG. 15A). Reduction of cytochrome c was monitored by absorbance at 550 nm using a 96-well UV-VIS plate reader (Molecular Devices). Addition of CL decreased the rate of cytochrome c reduction by half.
The time course of cytochrome c reduction by ascorbate was recorded at 550 nm and 570 nm using a 96-well plate reader (Molecular Devices, Sunnyvale, Calif.). For all reactions, cytochrome c was preincubated with cardiolipin in the presence or absence of SS peptides for 1 min. […] Ascorbate (50 μM) was added to initiate the reduction of cytochrome c, and the absorbance was recorded for 5 min. The rate of reduction was calculated based on slope of the change in absorbance intensity of 550 nm over 570 nm.

[5] = test system: isolated rat kidney mitochondria; assay: O2 consumption in isolated mitochondria; type: biochemical; conditions: 400 μM ADP
Procedure: (§1) Fresh mitochondria were isolated from rat kidney as described previously. Electron flux was measured by O2 consumption (Oxygraph Clark electrode) as previously described using different substrates for C1 (glutamate/malate), C2 (succinate), and C3 (TMPD/ascorbate). Assays were carried out under low substrate conditions in order to avoid saturating the enzyme reactions. ATP production in isolated mitochondria was determined kinetically using the luciferase method (Biotherma) in a 96-well luminescence plate reader (Molecular Devices). The initial maximal rate for ATP synthesis was determined over the first minute.
Oxygen consumption of isolated rat kidney mitochondria was determined using the Oxygraph (FIG. 5). Rates of respiration were measured in the presence of different concentrations of SS-31 in state 2 (400 μM ADP only), state 3 (400 μM ADP and 500 μM substrates) and state 4 (substrates only). All experiments were done in triplicate with n=4−7. […] Accordingly, aromatic-cationic peptides of the present disclosure are useful for promoting electron transfer to oxygen without uncoupling mitochondria, increasing O2 consumption, and treating diseases or conditions related to dysregulation of O2 consumption in mitochondria.
(§2) SS-20 or SS-31 was added at 100 μM concentrations to isolated mitochondria in respiration buffer containing 0.5 mM succinate (complex II substrate) and 400 μM ADP. Similar increases in O2 consumption were observed when low concentrations of complex I substrates (glutamate/malate) were used (data not shown). […] Accordingly, targeting SS-20 and SS-31 to the IMM can facilitate electron flux in the electron transport chain and improve ATP synthesis, especially under conditions of reduced substrate supply.
SS-20 or SS-31 was added at 10 μM or 100 μM concentrations to isolated mitochondria in respiration buffer containing glutamate/malate (complex I substrate), 0.5 mM succinate (complex II substrate) or 3 μM TMPD/1 mM ascorbate (direct reductant of cytochrome c). 400 μM ADP was added to initiate State 3 respiration.

isolated mitochondria = assay: ATP synthesis in isolated mitochondria; type: biochemical, rat; conditions: mitochondria energized with low concentrations of succinate
Procedure: as §1
The rate of mitochondrial ATP synthesis was determined by measuring ATP in respiration buffer collected from isolated mitochondria 1 min after addition of […] (FIG. 6). ATP was assayed by HPLC. All experiments were carried out in triplicate, with n=3. […] Accordingly, aromatic-cationic peptides of the present disclosure are useful for increasing ATP synthesis in mitochondria and for treating diseases or disorder characterized by dysregulation of ATP synthesis.
as §2
Increase in electron flux in the electron transport chain can either result in increase in ATP synthesis or increase in electron leak and generation of free radicals. ATP synthesis in isolated mitochondria was assayed by HPLC. […] Accordingly, aromatic-cationic peptides of the present disclosure are useful for increasing ATP synthesis in mitochondria and for treating diseases or disorder characterized by dysregulation of ATP synthesis.

cytochrome c = cytochrome c (Equus caballus, UniProt P00004); assay: Cytochrome c reduction kinetics (absorption spectroscopy); type: biochemical; conditions: glutathione (GSH) as reducing agent; absorbance at 550 nm
Sequence of cytochrome c (P00004 2-105 limits assumed): as the sequence (P00004 2-105 limits assumed, one chain of several) above
Procedure: Increasing amounts of aromatic-cationic peptides were added to a solution of oxidized cytochrome c. The formation of reduced cytochrome c was monitored by absorbance at […]. The rate of cytochrome c reduction was determined by non-linear analysis (Prizm software).
Time-resolved UV-Visible absorption spectroscopy was used to study the electron transport process of cytochrome c in the presence of peptides. Reduced cytochrome c was monitored by absorbance at a broad-band spectral range (200-1100 nm). The absorption changes were recorded with a UV/Visible spectrophotometer (Ultrospec 3300 pro, GE) in quartz cells with path lengths of 1 or 2 mm. N-acetylcysteine (NAC) and glutathione were used as electron donors to reduce oxidized cytochrome c. The rate constant of cytochrome c reduction was estimated by adding various concentrations of peptides. The dose dependence of the peptides was correlated to the cytochrome c reduction kinetics.
Absorption spectroscopy (UltroSpec 3300 Pro; 220-1100 nm) was used to determine if SS-31 modulates cytochrome c reduction (FIG. 1). Reduction of cytochrome c with glutathione is associated with multiple shifts in the Q band (450-650 nm), with a prominent shift at 550 nm. […] Accordingly, the aromatic-cationic peptides of the present disclosure are useful for altering the structure and oxidation state of cytochrome c, and are useful for the prevention or treatment of diseases or disorders characterized by dysregulation of cytochrome c.
Reduction of cytochrome c was monitored by increase in absorbance at 550 nm. […] Similar results were obtained using N-acetylcysteine (NAC) as a reducing agent (not shown). […] Accordingly, aromatic-cationic peptides of the present disclosure are useful for the prevention or treatment of diseases or disorders characterized by dysregulation of cytochrome c and are useful for facilitating cytochrome c reduction.

T1 sequence (P00004 2-105 limits assumed): as the sequence (P00004 2-105 limits assumed, one chain of several) above

Row | Substance | quenching of fluorescence by cytochrome c in the presence of CL ([1]; 10 μM peptide, 2 μM cytochrome c) | displacement of quenching by bovine serum albumin in the presence of CL ([1]; BSA 500 μg/ml) | increase in quantal yield on addition of CL [2] [fold] | protection against CL-induced disappearance of negative Cotton effect [3] | CL inhibition of cytochrome c reduction [4] | O2 consumption in state 3 respiration ([5]; 10 μM or 100 μM peptide, complex I or complex II substrates or TMPD/ascorbate) | electron flux measured by O2 consumption ([5]; 100 μM peptide, 0.5 mM succinate) | rate of ATP production (isolated mitochondria) | rate (kinetics) of cytochrome c reduction (cytochrome c)
1 | 2′,6′-Dmt-D-Arg-Phe-Lys-Ald-NH2 [SS-37] | similarly quenched | not displaced | 3 |  |  |  |  |  | 
2 | D-Arg-Tyr-Lys-Phe-NH2 ([dR]YKF-NH2; N-terminus assumed; SMILES N=C(N)NCCC[C@@H](N)C(=O)N[C@@H](Cc1ccc(O)cc1)C(=O)N[C@@H](CCCCN)C(=O)N[C@@H](Cc1ccccc1)C(N)=O) [SPI-231] |  |  |  | Protect the Heme Environment of Cytochrome c from the Acyl Chain of CL | prevented CL inhibition of cytochrome c reduction |  |  |  | 
3 | F[dR]FK-NH2 [SS-20] |  |  |  | Protect the Heme Environment of Cytochrome c from the Acyl Chain of CL | prevented CL inhibition of cytochrome c reduction | increases O2 consumption in state 3 respiration | promote electron flux | significant increase in the rate of ATP production | accelerate the kinetics of cytochrome c reduction
